# Experimental data: patent US20050197350A1, “Novel quinoline, tetrahydroquinazoline, and pyrimidine derivatives and methods of treatment related to the use thereof” (TAISHO PHARMACEUTICAL CO., LTD., priority 2003, published 2005)
# Target: MCH receptor (Homo sapiens, UniProt Q99705)
# Experiment: High throughput functional screening FLIPR/FDSS6000 (intracellular Ca2+ evoked by MCH)
# Type: cell-based
# Settings: FLIPR/FDSS, antagonist activity vs 50 nM MCH; class by percent of control at 10^−7 M or IC50; read-out: class
# Procedure, shortened: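 For antagonist testing, compound-treated cells (30 min, 37 °C) were stimulated with 50 nM MCH and intracellular Ca2+ followed by Fluo4 fluorescence on FLIPR/FDSS6000. Receptor was a constitutively active, non-endogenous MCH receptor; dye loading 4 μM Fluo4-AM, 1 h, 37 °C.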
row,SMILES,IC50 [nM]
1,"COc1nc(N[C@H]2CC[C@@H](NC(=O)c3cc(Cl)cc(Cl)c3)CC2)ncc1C [Example 3279, 3,5-dichloro-N-{cis-4-[(4-methoxy-5-methylpyrimidin-2-yl)amino]cyclohexyl}benzamide]",> 200
2,"COc1nc(N[C@H]2CC[C@@H](NC(=O)c3cc(C(F)(F)F)cc(C(F)(F)F)c3)CC2)ncc1C [Example 3280, N-{cis-4-[(4-methoxy-5-methylpyrimidin-2yl)amino]cyclohexyl}-3,5-bis(trifluoromethyl)benzamide]",> 200
3,"Cc1cnc(N[C@H]2CC[C@@H](C(=O)N[C@@H](C)c3ccc(Cl)cc3)CC2)nc1N(C)C [Example 3292, cis-N-[(1S)-1-(4-chlorophenyl)ethyl]-4-{[4-(dimethylamino)-5-methylpyrimidin-2-yl]amino}cyclohexanecarboxamide]",50 to 200
4,"Cc1cnc(N[C@H]2CC[C@@H](C(=O)N[C@@H](C)c3cc(C(F)(F)F)cc(C(F)(F)F)c3)CC2)nc1N(C)C [Example 3293, cis-N-{(1S)-1-[3,5-bis(trifluoromethyl)phenyl]ethyl}-4-{[4-(dimethylamino)-5-methylpyrimidin-2-yl]amino}cyclohexanecarboxamide]",> 200
5,"Cc1cnc(N[C@H]2CC[C@@H](C(=O)N[C@H](C)c3ccccc3F)CC2)nc1N(C)C [Example 3294, cis-4-{[4-(dimethylamino)-5-methylpyrimidin-2-yl]aminol}-N-[(1R)-1-(2-fluorophenyl)ethyl]cyclohexanecarboxamide]",> 200
6,"Cc1cnc(N[C@H]2CC[C@@H](C(=O)N[C@@H](C)c3ccccc3F)CC2)nc1N(C)C [Example 3295, cis-4-{[4-(dimethylamino)-5-methylpyrimidin-2-yl]amino}-N-[(1S)-1-(2-fluorophenyl)ethyl]cyclohexanecarboxamide]",> 200
7,"Cc1cnc(N[C@H]2CC[C@@H](C(=O)N[C@H](C)c3ccc(Br)cc3)CC2)nc1N(C)C [Example 3297, cis-N-[(1R)-1-(4-bromophenyl)ethyl]-4-{[4-(dimethylamino)-5-methylpyrimidin-2-yl]amino}cyclohexanecarboxamide]",50 to 200
8,"Cc1cnc(NC2CCC(C(=O)N[C@@H](C)c3ccccc3C(F)(F)F)CC2)nc1N(C)C (stereo partly drawn) [Example 3300, 4-{[4-(dimethylamino)-5-methylpyrimidin-2-yl]amino}-N-{(1S)-1-[2-(trifluoromethyl)phenyl]ethyl}cyclohexanecarboxamide]",< 50
9,"Cc1cnc(NC2CCC(C(=O)N[C@H](C)c3ccccc3C(F)(F)F)CC2)nc1N(C)C (stereo partly drawn) [Example 3301, 4-{[4-(dimethylamino)-5-methylpyrimidin-2-yl]amino}-N-{(1R)-1-[2-(trifluoromethyl)phenyl]ethyl}cyclohexanecarboxamide]",> 200
10,"Cc1cnc(N[C@H]2CC[C@@H](C(=O)N[C@@H](C)c3ccc(OC(F)(F)F)cc3)CC2)nc1N(C)C [Example 3302, cis-4-{[4-(dimethylamino)-5-methylpyrimidin-2-yl]amino}-N-{(1S)-1-[4-(trifluoromethoxy)phenyl]ethyl}-cyclohexanecarboxamide]",< 50
11,"Cc1cnc(N[C@H]2CC[C@@H](C(=O)N[C@H](C)c3ccc(OC(F)(F)F)cc3)CC2)nc1N(C)C [Example 3303, cis-4-{[4-(dimethylamino)-5-methylpyrimidin-2-yl]amino}-N-{(1R)-1-[4-(trifluoromethoxy)phenyl]ethyl}-cyclohexanecarboxamide]",50 to 200
12,"Cc1cc(N[C@H]2CC[C@@H](C(=O)N[C@@H](C)c3ccc(Br)cc3)CC2)nc2ccccc12 [Example 3304, cis-N-[(1S)-1-(4-bromophenyl)ethyl]-4-[(4-methylquinolin-2-yl)amino]cyclohexanecarboxamide]",> 200
13,"Cc1cc(N[C@H]2CC[C@@H](C(=O)N[C@H](C)c3ccc(Cl)cc3)CC2)nc2ccccc12 [Example 3305, cis-N-[(1R)-1-(4-chlorophenyl)ethyl]-4-[(4-methylquinolin-2-yl)amino]cyclohexanecarboxamide]",50 to 200
14,"Cc1cc(N[C@H]2CC[C@@H](C(=O)N[C@@H](C)c3ccc(Cl)cc3)CC2)nc2ccccc12 [Example 3306, cis-N-[(1S)-1-(4-chlorophenyl)ethyl]-4-[(4-methylquinolin-2-yl)amino]cyclohexanecarboxamide]",50 to 200
15,"Cc1cc(N[C@H]2CC[C@@H](C(=O)N[C@H](C)c3cccc(C(F)(F)F)c3)CC2)nc2ccccc12 [Example 3307, cis-4-[(4-methylquinolin-2-yl)amino]-N-{(1R)-1-[3-(trifluoromethyl)phenyl]ethyl}cyclohexanecarboxamide]",< 50
16,"Cc1cnc(N[C@H]2CC[C@@H](C(=O)N[C@@H](C)c3ccc(Br)cc3)CC2)nc1N(C)C [Example 3308, cis-N-[(1S)-1-(4-bromophenyl)ethyl]-4-{[4-(dimethylamino)-5-methylpyrimidin-2-yl]amino}cyclohexanecarboxamide]",< 50
17,"Cc1cc(N[C@H]2CC[C@@H](C(=O)N[C@@H](C)c3cc(C(F)(F)F)cc(C(F)(F)F)c3)CC2)nc2ccccc12 [Example 3309, cis-N-{(1S)-1-[3,5-bis(trifluoromethyl)phenyl]ethyl}-4-[(4-methylquinolin-2-yl)amino]cyclohexanecarboxamide]",50 to 200
18,"Cc1cc(N[C@H]2CC[C@@H](C(=O)N[C@H](C)c3ccc(OC(F)(F)F)cc3)CC2)nc2ccccc12 [Example 3310, cis-4-[(4-methylquinolin-2-yl)amino]-N-{(1R)-1-[4-(trifluoromethoxy)phenyl]ethyl}cyclohexanecarboxamide]",> 200

# Other lines, results leading:
row,IC50 [nM],SMILES
1,< 50,"Cc1cnc(N[C@H]2CC[C@@H](NC(=O)c3cccnc3S(=O)(=O)c3ccc(F)cc3)CC2)nc1N(C)C [Example 3281, N-(cis-4-{[4-(dimethylamino)-5-methylpyrimidin-2-yl]amino}cyclohexyl)-2-[(4-fluorophenyl)sulfonyl]nicotinamide]"
2,< 50,"Cc1cnc(N[C@H]2CC[C@@H](NC(=O)c3cccnc3S(=O)(=O)c3ccc(Cl)cc3)CC2)nc1N(C)C [Example 3282, 2-[(4-chlorophenyl)sulfonyl]-N-(cis-4-{[4-(dimethylamino)-5-methylpyrimidin-2-yl]amino}cyclohexyl)nicotinamide]"
3,50 to 200,"Cc1cnc(N[C@H]2CC[C@@H](NC(=O)c3cccnc3S(=O)(=O)c3cccc(Cl)c3)CC2)nc1N(C)C [Example 3283, 2-[(3-chlorophenyl)sulfonyl]-N-(cis-4-{[4-(dimethylamino)-5-methylpyrimidin-2-yl]amino}cyclohexyl)nicotinamide]"
4,50 to 200,"Cc1cnc(N[C@H]2CC[C@@H](NC(=O)c3cccnc3S(=O)(=O)c3ccccc3Cl)CC2)nc1N(C)C [Example 3284, 2-[(2-chlorophenyl)sulfonyl]-N-(cis-4-{[4-(dimethylamino)-5-methylpyrimidin-2-yl]amino}cyclohexyl)nicotinamide]"
5,50 to 200,"Cc1cnc(N[C@H]2CC[C@@H](NC(=O)c3cccnc3S(=O)(=O)c3cccc(Br)c3)CC2)nc1N(C)C [Example 3285, 2-[(3-bromophenyl)sulfonyl]-N-(cis-4-{[4-(dimethylamino)-5-methylpyrimidin-2-yl]amino}cyclohexyl)nicotinamide]"
6,> 200,"COc1ccc(S(=O)(=O)c2ncccc2C(=O)N[C@H]2CC[C@@H](Nc3ncc(C)c(N(C)C)n3)CC2)cc1 [Example 3286, N-(cis-4-{[4-(dimethylamino)-5-methylpyrimidin-2-yl]amino}cyclohexyl)-2-[(4-methoxyphenyl)sulfonyl]-nicotinamide]"
7,50 to 200,"Cc1cnc(N[C@H]2CC[C@@H](NC(=O)c3cccnc3S(=O)(=O)c3cccc(C(F)(F)F)c3)CC2)nc1N(C)C [Example 3287, N-(cis-4-{[4-(dimethylamino)-5-methylpyrimidin-2-yl]amino}cyclohexyl)-2-{[3-(trifluoromethyl)phenyl]sulfonyl}-nicotinamide]"
8,50 to 200,"Cc1ccc(S(=O)(=O)c2ncccc2C(=O)N[C@H]2CC[C@@H](Nc3ncc(C)c(N(C)C)n3)CC2)cc1 [Example 3288, N-(cis-4-{[4-(dimethylamino)-5-methylpyrimidin-2-yl]amino}cyclohexyl)-2-[(4-methylphenyl)sulfonyl]nicotinamide]"
9,50 to 200,"Cc1cnc(N[C@H]2CC[C@@H](NC(=O)c3cccnc3S(=O)(=O)c3ccc(Br)cc3)CC2)nc1N(C)C [Example 3289, 2-[(4-bromophenyl)sulfonyl]-N-(cis-4-{[4-(dimethylamino)-5-methylpyrimidin-2-yl]amino}cyclohexyl)nicotinamide]"
10,> 200,"Cc1cnc(N[C@H]2CC[C@@H](NC(=O)c3cccnc3S(=O)(=O)c3ccoc3C)CC2)nc1N(C)C [Example 3290, N-(cis-4-{[4-(dimethylamino)-5-methylpyrimidin-2-yl]amino}cyclohexyl)-2-[(2-methyl-3-furyl)sulfonyl]nicotinamide]"
11,50 to 200,"Cc1cnc(N[C@H]2CC[C@@H](NC(=O)c3cccnc3S(=O)(=O)c3ccc(C(F)(F)F)cc3)CC2)nc1N(C)C [Example 3291, N-(cis-4-{[4-(dimethylamino)-5-methylpyrimidin-2-yl]amino}cyclohexyl)-2-{[4-(trifluoromethyl)phenyl]sulfonyl}-nicotinamide]"
12,< 50,"Cc1cnc(NC2CCC(C(=O)N[C@@H](C)c3cccc(C(F)(F)F)c3)CC2)nc1N(C)C (stereo partly drawn) [Example 3298, 4-{[4-(dimethylamino)-5-methylpyrimidin-2-yl]amino}-N-{(1S)-1-[3-(trifluoromethyl)phenyl]ethyl}cyclohexanecarboxamide]"
13,< 50,"Cc1cnc(NC2CCC(C(=O)N[C@H](C)c3cccc(C(F)(F)F)c3)CC2)nc1N(C)C (stereo partly drawn) [Example 3299, 4-{[4-(dimethylamino)-5-methylpyrimidin-2-yl]amino}-N-{(1R)-1-[3-(trifluoromethyl)phenyl]ethyl}cyclohexanecarboxamide]"
